The values that follow come from patent publication US20210355106A1, “NEW AMINO-PYRIMIDONYL-PIPERIDINYL DERIVATIVES, A PROCESS FOR THEIR PREPARATION AND PHARMACEUTICAL COMPOSITIONS CONTAINING THEM” (LES LABORATOIRES SERVIER, priority 2018, published 2021).

For the test, the target named is T1, USP7 (Homo sapiens, UniProt Q93009, C315A).
T1 construct: 0.25 nM His-His-USP7 (aa208-560, |C315A|) was incubated with compound; His-His (N)
Briefly: Inhibition of USP7 by Fluorescence Intensity (FLINT) readings, Ubiquitin-Rhodamine-110 substrate. It is filed as biochemical. The conditions noted are these: 0.25 nM His-His-USP7 (aa208-560), 60 minutes at 30° C. preincubation; Ki determined from IC50 according to Cer et al. Here is the method:
USP7 activity was measured using Rhodamine-110 c-terminal labelled Ubiquitin as a substrate (UbiQ Bio), Incubation with USP7 results in the release of Rhodamine-110 leading to an increase in fluorescence which can be used in the continuous measurement of USP7 activity.
The USP7 reactions were performed in a 50 μL volume, in 384 well black solid low binding plates (Corning #3575). The reaction buffer consisted of 100 mM Bicine pH 8.0, 0.01% TritonX 100, 1 mM TCEP, and 10% DMSO.
0.25 nM His-His-USP7 (aa208-560, |C315A|) was incubated with compound (final concentration 10% DMSO) for 60 minutes at 30° C. The reaction was then initiated by the addition of 50) nM Ubiquitin-Rhodamine-110 substrate or 4 μM Ubiquitin-Rhodamine-110 substrate and the plate read every 3 minutes for 21 minutes to measure the release of Rhodamine-110. Fluorescence Intensity (FLINT) readings were measured using a Biomek Neo plate reader (Ex.485 nm, Em.535 nm).
The inhibition of increasing doses of compound was expressed as a percentage reduction in kinetic rate compared to the kinetic rates established between ‘DMSO only’ and ‘total inhibition’ controls (no USP7). The inhibitory concentrations that gave a 50% reduction in kinetic rate (IC50) were determined, from 11-point dose response curves, in XL-Fit using a 4-Parameter Logistic Model 205 (Sigmoidal Dose-Response Model). The K, values were determined from the IC50 values according to Cer et al. Nucleic Acids Res. 2009, July 1; 37 (WebServer issue): W441-W445.

Structures can show the parent of a compound that is named as a salt.

T1 sequence (Q93009 208-560 C315A): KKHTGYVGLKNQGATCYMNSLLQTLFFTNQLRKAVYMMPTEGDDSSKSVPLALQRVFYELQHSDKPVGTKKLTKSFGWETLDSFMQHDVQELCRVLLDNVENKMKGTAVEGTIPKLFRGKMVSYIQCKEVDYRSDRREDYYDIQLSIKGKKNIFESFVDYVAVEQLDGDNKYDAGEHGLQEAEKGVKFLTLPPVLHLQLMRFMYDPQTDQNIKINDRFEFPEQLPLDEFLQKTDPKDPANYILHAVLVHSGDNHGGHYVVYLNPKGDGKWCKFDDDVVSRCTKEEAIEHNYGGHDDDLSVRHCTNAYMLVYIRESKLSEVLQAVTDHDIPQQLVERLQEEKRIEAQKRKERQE

The compound `Nc1c(Oc2ccc(F)cc2)ncn(C[C@@]2(O)CCN(C(=O)[C@@H]3CCN(C(=O)C4CC(c5ccccc5)C4)C[C@H]3c3ccccc3)CC2(F)F)c1=O` (single isomer, unassigned) [Example 71] showed a Ki of 112 nM.

`Nc1c(Oc2ccc(F)cc2)ncn(C[C@@]2(O)CCN(C(=O)[C@@H]3CCN(C(=O)C4CC(c5ccccc5)C4)C[C@H]3c3ccccc3)CC2(F)F)c1=O` (single isomer, unassigned) [Example 72] came in with a Ki of 235 nM.

`CC(C)(C)OC(=O)N1CC[C@@H](C(=O)N2CCC(O)(Cn3cnc(Oc4ccc(Cl)cc4)c(N)c3=O)CC2)[C@H](c2ccccc2)C1` [Example 1, tert-butyl (3R,4R)-4-[4-[[5-amino-4-(4-chlorophenoxy)-6-oxo-pyrimidin-1-yl]methyl]-4-hydroxy-piperidine-1-carbonyl]-3-phenyl-piperidine-1-carboxylate]: the Ki was 103 nM.

Consider `COc1cc(Cl)cc(Oc2ncn(CC3(O)CCN(C(=O)[C@@H]4CCN(C(=O)OC(C)(C)C)C[C@H]4c4ccccc4)CC3)c(=O)c2N)c1` [Example 2, tert-butyl (3R,4R)-4-[4-[[5-amino-4-(3-chloro-5-methoxy-phenoxy)-6-oxo-pyrimidin-1-yl]methyl]-4-hydroxy-piperidine-1-carbonyl]-3-phenyl-piperidine-1-carboxylate], for which affinity was put at a Ki of 191 nM.

As for `CC(C)(C)OC(=O)N1CC[C@@H](C(=O)N2CCC(O)(Cn3cnc(Oc4ccc(Cl)c(F)c4)c(N)c3=O)CC2)[C@H](c2ccccc2)C1` [Example 3, tert-butyl (3R,4R)-4-[4-[[5-amino-4-(4-chloro-3-fluoro-phenoxy)-6-oxo-pyrimidin-1-yl]methyl]-4-hydroxy-piperidine-1-carbonyl]-3-phenyl-piperidine-1-carboxylate], the affinity corresponds to a Ki of 125 nM. Against the preceding compound, the Ki is about 1.5-fold lower.

In the case of `COc1cc(Oc2ncn(CC3(O)CCN(C(=O)[C@@H]4CCN(C(=O)OC(C)(C)C)C[C@H]4c4ccccc4)CC3)c(=O)c2N)ccc1F` [Example 4, tert-butyl (3R,4R)-4-[4-[[5-amino-4(4-fluoro-3-methoxy-phenoxy)-6-oxo-pyrimidin-1-yl]methyl]-4-hydroxy-piperidine-1-carbonyl]-3-phenyl-piperidine-1-carboxylate], the Ki stood at 115 nM.

Consider `CC(C)(C)OC(=O)N1CC[C@@H](C(=O)N2CCC(O)(Cn3cnc(Oc4cccc(C(F)(F)F)c4)c(N)c3=O)CC2)[C@H](c2ccccc2)C1` [Example 5, tert-butyl (3R,4R)-4-[4-[[5-amino-6-oxo-4-[3-(trifluoromethyl)phenoxy]pyrimidin-1-yl]methyl]-4-hydroxy-piperidine-1-carbonyl]-3-phenyl-piperidine-1-carboxylate], for which the Ki turned out to be 299 nM.

For the compound `CC(C)(C)OC(=O)N1CC[C@@H](C(=O)N2CCC(O)(Cn3cnc(Oc4cccc(OC(F)(F)F)c4)c(N)c3=O)CC2)[C@H](c2ccccc2)C1` [Example 6], the Ki was found to be 398 nM. The Ki values of the last two compounds are within 1.5-fold of each other.

With `CC(C)(C)OC(=O)N1CC[C@@H](C(=O)N2CCC(O)(Cn3cnc(Oc4ccccc4)c(N)c3=O)CC2)[C@H](c2ccccc2)C1` [Example 7, tert-butyl (3R,4R)-4-[4-[(5-amino-6-oxo-4-phenoxy-pyrimidin-1-yl)methyl]-4-hydroxy-piperidine-1-carbonyl]-3-phenyl-piperidine-1-carboxylate], the Ki was determined as 137 nM. Against the preceding compound, the Ki is about 2.9-fold lower.

In turn, `CC(C)(C)OC(=O)N1CC[C@@H](C(=O)N2CCC(O)(Cn3cnc(Oc4ccc(F)cc4)c(N)c3=O)CC2)[C@H](c2ccccc2)C1` [Example 8, tert-butyl (3R,4R)-4-[4-[[5-amino-4-(4-fluorophenoxy)-6-oxo-pyrimidin-1-yl]methyl]-4-hydroxy-piperidine-1-carbonyl]-3-phenyl-piperidine-1-carboxylate] registered a Ki of 131 nM.

In turn, `CC(C)(C)OC(=O)N1CC[C@@H](C(=O)N2CC[C@](O)(Cn3cnc(Oc4ccccc4)c(N)c3=O)C(F)(F)C2)[C@H](c2ccccc2)C1` [Example 9, tert-butyl (3R,4R)-4-[(4S)-4-[(5-amino-6-oxo-4-phenoxy-pyrimidin-1-yl)methyl]-3,3-difluoro-4-hydroxy-piperidine-1-carbonyl]-3-phenyl-piperidine-1-carboxylate] registered a Ki of 82.5 nM.

Take `CC(C)(C)OC(=O)N1CC[C@@H](C(=O)N2CC[C@](O)(Cn3cnc(Oc4ccc(F)cc4)c(N)c3=O)C(F)(F)C2)[C@H](c2ccccc2)C1` [Example 10]: the affinity corresponds to a Ki of 104 nM.

On to `Nc1c(Oc2ccc(Cl)cc2)ncn(CC2(O)CCN(C(=O)[C@@H]3CCNC[C@H]3c3ccccc3)CC2)c1=O` [Example 14, 5-amino-6-(4-chlorophenoxy)-3-[[4-hydroxy-1-[(3R,4R)-3-phenylpiperidine-4-carbonyl]-4-piperidyl]methyl]pyrimidin-4-one hydrochloride], for which the Ki was found to be 115 nM. The Ki values of the last two compounds are within 1.5-fold of each other.

The compound `COc1cc(Cl)cc(Oc2ncn(CC3(O)CCN(C(=O)[C@@H]4CCNC[C@H]4c4ccccc4)CC3)c(=O)c2N)c1` [Example 15] had a Ki of 286 nM. This Ki lies about 2.5-fold higher than the previous one.

With `Nc1c(Oc2ccc(Cl)c(F)c2)ncn(CC2(O)CCN(C(=O)[C@@H]3CCNC[C@H]3c3ccccc3)CC2)c1=O` [Example 16], the Ki was determined as 232 nM.

`COc1cc(Oc2ncn(CC3(O)CCN(C(=O)[C@@H]4CCNC[C@H]4c4ccccc4)CC3)c(=O)c2N)ccc1F` [Example 17, 5-amino-6-(4-fluoro-3-methoxy-phenoxy)-3-[[4-hydroxy-1-(3R,4R)-3-phenylpiperidine-4-carbonyl]-4-piperidyl]methyl]pyrimidin-4-one hydrochloride] displayed a Ki of 116 nM.

On to `Nc1c(Oc2cccc(C(F)(F)F)c2)ncn(CC2(O)CCN(C(=O)[C@@H]3CCNC[C@H]3c3ccccc3)CC2)c1=O` [Example 18, 5-amino-3-[[4-hydroxy-1-[(3R,4R)-3-phenylpiperidine-4-carbonyl]-4-piperidyl]methyl]-6-[3-(trifluoromethyl)phenoxy]pyrimidin-4-one hydrochloride], for which the affinity, expressed as Ki, was 329 nM. Against the preceding compound, the Ki is about 2.8-fold higher.

The compound `Nc1c(Oc2cccc(OC(F)(F)F)c2)ncn(CC2(O)CCN(C(=O)[C@@H]3CCNC[C@H]3c3ccccc3)CC2)c1=O` [Example 19, 5-amino-3-[[4-hydroxy-1-[(3R,4R)-3-phenylpiperidine-4-carbonyl]-4-piperidyl]methyl]-6-[3-(trifluoromethoxy)phenoxy]pyrimidin-4-one hydrochloride] showed a Ki of 344 nM. This Ki and that of the compound before are within 1.5-fold of each other.

In turn, `Nc1c(Oc2ccccc2)ncn(CC2(O)CCN(C(=O)[C@@H]3CCNC[C@H]3c3ccccc3)CC2)c1=O` [Example 20, 5-amino-3-[4-hydroxy-1-[(3R,4R)N-phenylpiperidine-4-carbonyl-4-piperidyl]methyl]-6-phenoxy-pyrimidin-4-one] gave a Ki of 112 nM.

For `Nc1c(Oc2ccc(F)cc2)ncn(CC2(O)CCN(C(=O)[C@@H]3CCNC[C@H]3c3ccccc3)CC2)c1=O` [Example 21, 5-amino-6-(4-fluorophenoxy)-3-[[4-hydroxy-1-[(3R,4R)-3-phenylpiperidine-4-carbonyl]-4-piperidyl]methyl]pyrimidin-4-one], the affinity, expressed as Ki, was 103 nM.

For `Cc1ccc(-c2cccc(C(=O)N3CC[C@@H](C(=O)N4CCC(O)(Cn5cnc(Oc6ccc(F)cc6)c(N)c5=O)CC4)[C@H](c4ccccc4)C3)c2)cn1` [Example 32], the Ki was determined as 4.6 nM.

Regarding `Nc1c(Oc2ccc(F)cc2)ncn(CC2(O)CCN(C(=O)[C@@H]3CCN(C(=O)c4ccc5nc[nH]c(=O)c5c4)C[C@H]3c3ccccc3)CC2)c1=O` [Example 57, 6-[(3R,4R)-4-(4-t[5-amino-4-(4-fluorophenoxy)-6-oxopyrimidin-[(6N)-yl]methyl}-4-hydroxypiperidine-1-carbonyl)-3-phenylpiperidine-1-carbonyl]quinazolin-4(3n)-one], the Ki stood at 5.1 nM. The Ki values of the last two compounds are within 1.5-fold of each other.

In turn, `Nc1c(Oc2ccc(F)cc2)ncn(CC2(O)CCN(C(=O)[C@@H]3CCN(C(=O)c4ccc5c(c4)C(=O)C(=O)N5)C[C@H]3c3ccccc3)CC2)c1=O` [Example 58, 5-[(3R,4R)-4-[4-[[5-amino-4-(4-fluorophenoxy)-6-oxo-pyrimidin-1-yl]methyl]-4-hydroxy-piperidine-1-carbonyl]-3-phenyl-piperidine-1-carbonyl]indoline-2,3-dione] displayed a Ki of 6.51 nM.

On to `CC(C)(O)CN1CC[C@@H](C(=O)N2CCC(O)(Cn3cnc(Oc4ccc(F)cc4)c(N)c3=O)CC2)[C@H](c2ccccc2)C1` [Example 73, 5-amino-6-(4-fluorophenoxy)-3-[[4-hydroxy-1-[(3R,4R)-1-(2-hydroxy-2-methyl-propyl)-3-phenyl-piperidine-4-carbonyl]-4-piperidyl]methyl]pyrimidin-4-one], for which the Ki is 326 nM. This Ki is about 50-fold higher than that of the compound before.

On to `Nc1c(Oc2ccc(F)cc2)ncn(CC2(O)CCN(C(=O)[C@@H]3CCN(C(=O)NCc4ccccc4)C[C@H]3c3ccccc3)CC2)c1=O` [Example 79, (3R,4R)-4-[4-[[5-amino-4-(4-fluorophenoxy)-6-oxo-pyrimidin-1-yl]methyl]-4-hydroxy-piperidine-1-carbonyl]-N-benzyl-3-phenyl-piperidine-1-carboxamide], for which the Ki came to 121 nM. This Ki lies about 2.7-fold lower than the previous one.
